Consider twelve compounds from patent publication US9113629B2, “4-amino-6-(4-substituted-phenyl)-picolinates and 6-amino-2-(4-substituted-phenyl)-pyrimidine-4-carboxylates and their use as herbicides” (DOW AGROSCIENCES LLC, priority 2013, dated 2015).

Common to all, as to type: in vivo
The subject of assay [1] is LAMSS. As to the kind of experiment: Post-emergent Test III, herbicidal activity in wheat and barley. To be noted: Table 8, 21 d; for GR50 LAMSS: dose for 50 percent growth reduction; for GR50 LAMSS / GR80 LAMSS: probit analysis; for GR80 LAMSS: dose for 80 percent growth reduction; for pest or weed control at 35 g/ha: 35 g ai/ha; for pest or weed control at 70 g/ha: 70 g ai/ha. In a few lines: (§1)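 GR20, GR50, GR80 and GR90 come from probit analysis of visual injury scores (0 = none, 100 = complete kill) taken 21 d after treatment. Foliar application was by track sprayer delivering 187 L/ha at five rates, from high down to 1/16×, onto greenhouse plants at the 2–3 leaf stage, with solvent-blank controls.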

Assay [2] relates to VERPE: bird's-eye speedwell (veronica persica). Described as above. The conditions noted are these: for GR50 VERPE: dose for 50 percent growth reduction; for GR50 VERPE / GR80 VERPE: probit analysis; for GR80 VERPE: dose for 80 percent growth reduction; for pest or weed control at 35 g/ha: 35 g ai/ha; for pest or weed control at 70 g/ha: 70 g ai/ha. The procedure, abridged: as §1

Assay [3] concerns ECHCG: barnyardgrass (Echinochloa crus-galli). Briefly: Pre-emergent Test I herbicidal activity. To be noted: pre-emergence, 336 h, read-out: Visual Growth Reduction (%) 14 Days After Application, ECHCG. As for the experimental part: (§2) Pre-emergent Test I Seeds of test species were planted into round plastic pots (5-inch diameter) containing sandy loam soil. After planting, all pots were sub-irrigated 16 h prior to compound application. Compounds were dissolved in a 97:3 v/v (volume/volume) mixture of acetone and dimethyl sulfoxide (DMSO) and diluted to the appropriate concentration in a final application solution containing water, acetone, isopropanol, DMSO and Agri-dex (crop oil concentrate) in a 59:23:15:1.0:1.5 v/v ratio and 0.02% w/v (weight/volume) of Triton X-155 to obtain the spray solution containing the highest application rate. Additional application rates were obtained by serial dilution of the high rate solution with the above application solution. Formulated compound (2.7 mL) was applied pipetted evenly over the soil surface followed by incorporation with water (15 mL). Following treatment, pots were returned to the greenhouse for the duration of the experiment. The greenhouse was programmed for an approximate 15 h photoperiod which was maintained at about 23-29° C. during the day and 22-28° C. during the night. Nutrients and water were added on a regular basis through surface irrigation and supplemental lighting was provided with overhead metal halide 1000-Watt lamps as necessary. Herbicidal effect ratings were obtained 14 days after treatment. All evaluations were made relative to appropriate controls on a scale of 0 to 100 where 0 represents no herbicidal effect and 100 represents plant death or lack of emergence from the soil.

For assay [4], the system named is HELAN: sunflower (Helianthus annuus). As to the kind of experiment: Pre-emergent Test I herbicidal activity. The conditions noted are these: pre-emergence, 336 h, read-out: Visual Growth Reduction (%) 14 Days After Application, HELAN. As for the experimental part:
as §2

Assay [5] relates to IPOHE: ivyleaf morningglory (Ipomoea hederecea). As to the kind of experiment: Pre-emergent Test I herbicidal activity. The conditions noted are these: pre-emergence, 336 h, read-out: Visual Growth Reduction (%) 14 Days After Application, IPOHE. As for the experimental part:
as §2

The test system of assay [6] is SETFA: giant foxtail (Setaria faberi). Briefly: Pre-emergent Test I herbicidal activity. To be noted: pre-emergence, 336 h, read-out: Visual Growth Reduction (%) 14 Days After Application, SETFA. How it is done: as §2
Setting [7] is: post-emergence, 504 h, post-emergent, read-out: Visual Growth Reduction (%) 21 Days After Application LAMSS.
Setting [8] is: Veronica persica, post-emergence, 504 h, Table 8, post-emergent, 21 d, read-out: Visual Growth Reduction (%) 21 Days After Application VERPE.
Setting [9] is: Veronica persica, post-emergence, 504 h, 21 days after application, read-out: Visual Gorowth Reduction (%) 21 days After Application VERPE.

Like-named read-outs stand apart in the source and are kept apart here.

In the case of `Nc1cc(-c2cc(F)c(Br)cc2F)nc(C(=O)O)c1Cl` [Compound 3], in assay [1], the “GR50 LAMSS” value is 1 g ai/ha and the “GR80 LAMSS” value was determined as 1 g ai/ha. Moreover, in assay [1] (setting [7]), the pest or weed control at 35 g/ha was 95 to 100% and the pest or weed control at 70 g/ha was in the range of 95 to 100%. In addition, in assay [2] (Table 8, 21 d), the “GR50 VERPE” value is 34 g ai/ha and the “GR80 VERPE” value came to 126 g ai/ha. In addition, in assay [2] (setting [8]), the pest or weed control at 35 g/ha was in the range of 45 to 59% and the pest or weed control at 70 g/ha was in the range of 60 to 74%.
Regarding `COC(=O)c1nc(-c2ccc(I)c(F)c2)nc(N)c1OC` [Compound 27, Methyl 6-amino-2-(3-fluoro-4-iodophenyl)-5-methoxypyrimidine-4-carboxylate], in assay [1], the “GR50 LAMSS” value came to 1 g ai/ha and the “GR80 LAMSS” value was found to be 14 g ai/ha. In addition, in assay [1] (setting [7]), the pest or weed control at 35 g/ha fell in the range of 85 to 94% and the pest or weed control at 70 g/ha was in the range of 85 to 94%. Besides, in assay [2] (Table 8, 21 d), the “GR50 VERPE” value was 5 g ai/ha and the “GR80 VERPE” value came to 42 g ai/ha. Moreover, in assay [2] (setting [8]), the pest or weed control at 35 g/ha fell in the range of 75 to 84% and the pest or weed control at 70 g/ha was 85 to 94%.
For `COc1c(N)nc(-c2ccc(I)c(F)c2)nc1C(=O)O` [Compound 37, 6-Amino-2-(3-fluoro-4-iodophenyl)-5-methoxypyrimidine-4-carboxylic acid], in assay [1], the “GR50 LAMSS” value came to 1 g ai/ha and the “GR80 LAMSS” value worked out at 11 g ai/ha. Besides, in assay [1] (setting [7]), the pest or weed control at 35 g/ha fell in the range of 85 to 94% and the pest or weed control at 70 g/ha is 95 to 100%. In assay [2] (Table 8, 21 d), the “GR50 VERPE” value is reported as 15 g ai/ha and the “GR80 VERPE” value was determined as 66 g ai/ha. Further, in assay [2] (setting [8]), the pest or weed control at 35 g/ha was 60 to 74% and the pest or weed control at 70 g/ha lay within 75 to 84%.
In the case of `Nc1c(Cl)c(C(=O)O)nc(-c2ccc(Br)c(F)c2)c1Cl` [Compound 43, 4-Amino-6-(4-bromo-3-fluorophenyl)-3,5-dichloropicolinic acid], in assay [1], the “GR50 LAMSS” value is 1 g ai/ha and the “GR80 LAMSS” value came out at 10 g ai/ha. In assay [1] (setting [7]), the pest or weed control at 35 g/ha was in the range of 85 to 94% and the pest or weed control at 70 g/ha fell in the range of 85 to 94%. In assay [2] (Table 8, 21 d), the “GR50 VERPE” value came to 33 g ai/ha and the “GR80 VERPE” value was greater than 140 g ai/ha. In addition, in assay [2] (setting [8]), the pest or weed control at 35 g/ha was 30 to 44% and the pest or weed control at 70 g/ha was in the range of 75 to 84%.
With `Nc1c(F)c(-c2cc(F)c(I)cc2F)nc(C(=O)O)c1Cl` [Compound 69], in assay [2] (setting [9]), the pest or weed control at 35 g/ha lay within 85 to 94% and the pest or weed control at 70 g/ha is 95 to 100%. In addition, in assay [2] (21 days after application), the “GR50 VERPE” value worked out at 1 g ai/ha and the “GR80 VERPE” value is recorded as 4 g ai/ha.
With `COC(=O)c1nc(-c2ccc(I)c(F)c2)c(C)c(N)c1Cl` [Compound 79, Methyl 4-amino-3-chloro-6-(3-fluoro-4-iodophenyl)-5-methylpicolinate], in assay [1], the “GR50 LAMSS” value is recorded as 27 g ai/ha and the “GR80 LAMSS” value came to 72 g ai/ha. Besides, in assay [1] (setting [7]), the pest or weed control at 35 g/ha lay in the range of 60 to 74% and the pest or weed control at 70 g/ha is 60 to 74%. In addition, in assay [2] (Table 8, 21 d), the “GR50 VERPE” value was 2 g ai/ha and the “GR80 VERPE” value turned out to be 37 g ai/ha. Further, in assay [2] (setting [8]), the pest or weed control at 35 g/ha was in the range of 75 to 84% and the pest or weed control at 70 g/ha fell in the range of 85 to 94%.
For `C=Cc1c(C(=O)O)nc(-c2ccc(C(F)(F)F)c(F)c2)c(F)c1N` [Compound 86], in assay [2] (setting [9]), the pest or weed control at 35 g/ha fell in the range of 85 to 94% and the pest or weed control at 70 g/ha is 85 to 94%. Further, in assay [2] (21 days after application), the “GR50 VERPE” value is 15 g ai/ha and the “GR80 VERPE” value is recorded as 34 g ai/ha.
`Nc1cc(-c2ccc(I)cc2F)nc(C(=O)O)c1Cl` [Compound 124]: in assay [1], the “GR50 LAMSS” value was found to be 1 g ai/ha and the “GR80 LAMSS” value is on record as 1 g ai/ha. In assay [1] (setting [7]), the pest or weed control at 35 g/ha lay in the range of 95 to 100% and the pest or weed control at 70 g/ha fell in the range of 95 to 100%. Besides, in assay [2] (Table 8, 21 d), the “GR50 VERPE” value worked out at 20 g ai/ha and the “GR80 VERPE” value is reported as 39 g ai/ha. Further, in assay [2] (setting [8]), the pest or weed control at 35 g/ha was in the range of 75 to 84% and the pest or weed control at 70 g/ha was 85 to 94%.
As to `Nc1c(Cl)c(C(=O)O)nc(-c2ccc(I)c(F)c2)c1Cl` [Compound 145, 4-Amino-3,5-dichloro-6-(3-fluoro-4-iodophenyl)picolinic acid], in assay [1], the “GR50 LAMSS” value came out at 4 g ai/ha and the “GR80 LAMSS” value is given as 13 g ai/ha. Also, in assay [1] (setting [7]), the pest or weed control at 35 g/ha lay within 95 to 100% and the pest or weed control at 70 g/ha was 95 to 100%. Also, the pest or weed control at 140 g/ha in assay [1] (post-emergence, 504 h, 140 g ai/ha, post-emergent, read-out: Visual Growth Reduction (%) 21 Days After Application LAMSS) fell in the range of 95 to 100%. In assay [2] (Table 8, 21 d), the “GR50 VERPE” value came out at 1 g ai/ha and the “GR80 VERPE” value is recorded as 10 g ai/ha. Further, in assay [2] (setting [8]), the pest or weed control at 35 g/ha was 85 to 94% and the pest or weed control at 70 g/ha lay within 85 to 94%. In addition, the pest or weed control at 140 g/ha in assay [2] (Veronica persica, post-emergence, 504 h, Table 8, 140 g ai/ha, post-emergent, 21 d, read-out: Visual Growth Reduction (%) 21 Days After Application VERPE) lay in the range of 95 to 100%.
Take `COC(=O)c1nc(-c2ccc(Br)c(F)c2)nc(N)c1OC` [Compound 171, Methyl 6-amino-2-(4-bromo-3-fluorophenyl)-5-methoxypyrimidine-4-carboxylate]: in assay [1], the “GR50 LAMSS” value was determined as 2 g ai/ha and the “GR80 LAMSS” value is recorded as 11 g ai/ha. In assay [1] (setting [7]), the pest or weed control at 35 g/ha lay within 85 to 94% and the pest or weed control at 70 g/ha lay in the range of 95 to 100%. Also, in assay [2] (Table 8, 21 d), the “GR50 VERPE” value is on record as 4 g ai/ha and the “GR80 VERPE” value was found to be 27 g ai/ha. For the same compound, in assay [2] (setting [8]), the pest or weed control at 35 g/ha was in the range of 85 to 94% and the pest or weed control at 70 g/ha lay within 85 to 94%.
For the compound `COC(=O)c1nc(-c2cccc(F)c2F)c(F)c(N)c1Cl` [Compound 199], the pest or weed control at 4000 g/ha in assay [3] (4 kg ai/ha) was in the range of 0 to 29%; in assay [4] (4 kg ai/ha), 60 to 74%; in assay [5] (4 kg ai/ha), 75 to 84%; in assay [6] (4 kg ai/ha), 45 to 59%.
For the compound `COC(=O)c1nc(-c2ccccc2F)c(F)c(N)c1Cl` [Compound 206], the pest or weed control at 4040 g/ha in assay [3] (4.04 kg ai/ha) was 0 to 29%; in assay [4] (4.04 kg ai/ha), 95 to 100%; in assay [5] (4.04 kg ai/ha), 95 to 100%; in assay [6] (4.04 kg ai/ha), 75 to 84%.
